Assay results: PubChem BioAssay (NCI)
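Five concentrations, 48 hours, 96-well plates. The concentration for 50% growth inhibition is given as GI50. TGI denotes the concentration required for complete inhibition of growth.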

Tests used:
Assay in all cases: NCI anticancer screen, dose series, 48 h
[1] = tested on: MDA-MB-468 breast
[2] = tested on: SK-MEL-5 melanoma
[3] = tested on: U251 CNS
[4] = tested on: K-562 leukemia
[5] = tested on: SNB-19 CNS
[6] = tested on: KM12 colon
[7] = tested on: SR leukemia
[8] = tested on: ACHN renal
[9] = tested on: OVCAR-5 ovarian
[10] = tested on: HCC-2998 colon
[11] = tested on: SK-MEL-2 melanoma
[12] = tested on: COLO 205 colon
[13] = tested on: MALME-3M melanoma
[14] = tested on: OVCAR-3 ovarian
[15] = tested on: BT-549 breast
[16] = tested on: M14 melanoma
[17] = tested on: NCI-H460 lung
[18] = tested on: SF-268 CNS
[19] = tested on: SK-MEL-28 melanoma
[20] = tested on: UACC-62 melanoma
[21] = tested on: CAKI-1 renal
[22] = tested on: SW-620 colon
[23] = tested on: MDA-MB-231 breast
[24] = tested on: OVCAR-8 ovarian
[25] = tested on: CCRF-CEM leukemia
[26] = tested on: HCT-116 colon
[27] = tested on: PC-3 prostate
[28] = tested on: NCI-H226 lung
[29] = tested on: SNB-75 CNS
[30] = tested on: HT29 colon
[31] = tested on: RXF 393 renal
[32] = tested on: HOP-62 NSCLC
[33] = tested on: EKVX NSCLC
[34] = tested on: IGROV1 ovarian
[35] = tested on: MOLT-4 leukemia
[36] = tested on: HS 578T breast
[37] = tested on: MCF7 breast
[38] = tested on: SN12C renal
[39] = tested on: DU-145 prostate
[40] = tested on: SF-295 CNS
[41] = tested on: 786-0 renal
[42] = tested on: T-47D breast
[43] = tested on: UO-31 renal
[44] = tested on: A549 NSCLC
[45] = tested on: SK-OV-3 ovarian
[46] = tested on: RPMI-8226 leukemia
[47] = tested on: TK-10 renal
[48] = tested on: HCT-15 colon
[49] = tested on: SF-539 CNS
[50] = tested on: LOX IMVI melanoma
[51] = tested on: A498 renal
[52] = tested on: NCI-H23 lung
[53] = tested on: HOP-92 NSCLC
[54] = tested on: NCI-H522 lung
[55] = tested on: NCI/ADR-RES ovarian
[56] = tested on: MDA-MB-435
[57] = tested on: HL-60(TB) leukemia
[58] = tested on: UACC-257 melanoma

Q: With COc1ccc(NC(=O)Cn2c(/C=C/c3cccc(OC)c3)nc3ccccc3c2=O)cc1 as the compound, how does the GI50 [1] read?
A: The GI50 was 3.4 µM.

Q: And the TGI [1]?
A: The TGI was over 91.6 µM.

Q: And the GI50 [2]?
A: The GI50 was over 100 µM.

Q: What about the TGI [2] of the same compound?
A: The TGI was over 100 µM.

Q: And the GI50 [3]?
A: Its GI50 is 0.973 µM.

Q: And the TGI [3]?
A: Its TGI is 4.2 µM.

Q: And the GI50 [4]?
A: The GI50 was over 100 µM.

Q: What about the TGI [4] of the same compound?
A: Its TGI is over 100 µM.

Q: And the GI50 [5]?
A: Its GI50 is 8.37 µM.

Q: And the TGI [5]?
A: The TGI was over 59.3 µM.

Q: What about the GI50 [6] of the same compound?
A: The GI50 was over 100 µM.

Q: What about the TGI [6] of the same compound?
A: The TGI was over 100 µM.

Q: What about the GI50 [7] of the same compound?
A: Its GI50 is 1.75 µM.

Q: What about the TGI [7] of the same compound?
A: Its TGI is over 100 µM.

Q: And the GI50 [8]?
A: The GI50 was 1.24 µM.

Q: And the TGI [8]?
A: Its TGI is 3.17 µM.

Q: What about the GI50 [9] of the same compound?
A: Its GI50 is over 24.9 µM.

Q: What about the TGI [9] of the same compound?
A: The TGI was over 100 µM.

Q: And the GI50 [10]?
A: Its GI50 is over 100 µM.

Q: And the TGI [10]?
A: Its TGI is over 100 µM.

Q: What about the GI50 [11] of the same compound?
A: Its GI50 is 27.2 µM.

Q: What about the TGI [11] of the same compound?
A: The TGI was 79.6 µM.

Q: What about the GI50 [12] of the same compound?
A: Its GI50 is over 100 µM.

Q: What about the TGI [12] of the same compound?
A: Its TGI is over 100 µM.

Q: What about the GI50 [13] of the same compound?
A: The GI50 was 3.79 µM.

Q: What about the TGI [13] of the same compound?
A: Its TGI is over 85.8 µM.

Q: What about the GI50 [14] of the same compound?
A: The GI50 was 4.03 µM.

Q: And the TGI [14]?
A: The TGI was over 45.9 µM.

Q: What about the GI50 [15] of the same compound?
A: Its GI50 is 9.84 µM.

Q: And the TGI [15]?
A: The TGI was over 59.9 µM.

Q: What about the GI50 [16] of the same compound?
A: The GI50 was over 29.3 µM.

Q: And the TGI [16]?
A: The TGI was over 100 µM.

Q: What about the GI50 [17] of the same compound?
A: The GI50 was 2.51 µM.

Q: And the TGI [17]?
A: The TGI was over 100 µM.

Q: And the GI50 [18]?
A: Its GI50 is 19.4 µM.

Q: What about the TGI [18] of the same compound?
A: The TGI was over 100 µM.

Q: And the GI50 [19]?
A: Its GI50 is over 75 µM.

Q: And the TGI [19]?
A: The TGI was over 100 µM.

Q: And the GI50 [20]?
A: Its GI50 is over 42.1 µM.

Q: And the TGI [20]?
A: Its TGI is over 89.6 µM.

Q: And the GI50 [21]?
A: The GI50 was 2.52 µM.

Q: And the TGI [21]?
A: The TGI was over 31.7 µM.

Q: What about the GI50 [22] of the same compound?
A: The GI50 was over 100 µM.

Q: What about the TGI [22] of the same compound?
A: The TGI was over 100 µM.

Q: What about the GI50 [23] of the same compound?
A: The GI50 was 1.4 µM.

Q: And the TGI [23]?
A: Its TGI is 4.42 µM.

Q: And the GI50 [24]?
A: The GI50 was 4.55 µM.

Q: And the TGI [24]?
A: Its TGI is over 100 µM.

Q: And the GI50 [25]?
A: The GI50 was over 100 µM.

Q: And the TGI [25]?
A: Its TGI is over 100 µM.

Q: And the GI50 [26]?
A: Its GI50 is 1.21 µM.

Q: What about the TGI [26] of the same compound?
A: Its TGI is over 59 µM.

Q: What about the GI50 [27] of the same compound?
A: Its GI50 is over 54 µM.

Q: What about the TGI [27] of the same compound?
A: Its TGI is over 100 µM.

Q: And the GI50 [28]?
A: The GI50 was 1.98 µM.

Q: And the TGI [28]?
A: Its TGI is 6.51 µM.

Q: And the GI50 [29]?
A: The GI50 was 1.63 µM.

Q: What about the TGI [29] of the same compound?
A: The TGI was 4.49 µM.

Q: And the GI50 [30]?
A: The GI50 was over 100 µM.

Q: What about the TGI [30] of the same compound?
A: Its TGI is over 100 µM.

Q: And the GI50 [31]?
A: Its GI50 is 1.93 µM.

Q: And the TGI [31]?
A: The TGI was 5.63 µM.

Q: And the GI50 [32]?
A: The GI50 was 3.01 µM.

Q: And the TGI [32]?
A: Its TGI is 28.3 µM.

Q: What about the GI50 [33] of the same compound?
A: Its GI50 is over 63.1 µM.

Q: And the TGI [33]?
A: Its TGI is over 100 µM.

Q: What about the GI50 [34] of the same compound?
A: The GI50 was over 31 µM.

Q: What about the TGI [34] of the same compound?
A: Its TGI is over 87.8 µM.

Q: And the GI50 [35]?
A: The GI50 was over 100 µM.

Q: What about the TGI [35] of the same compound?
A: The TGI was over 100 µM.

Q: And the GI50 [36]?
A: The GI50 was 2.46 µM.

Q: What about the TGI [36] of the same compound?
A: The TGI was over 100 µM.

Q: What about the GI50 [37] of the same compound?
A: The GI50 was 3.56 µM.

Q: And the TGI [37]?
A: The TGI was over 100 µM.

Q: And the GI50 [38]?
A: The GI50 was 1.85 µM.

Q: What about the TGI [38] of the same compound?
A: The TGI was over 39.1 µM.

Q: What about the GI50 [39] of the same compound?
A: Its GI50 is over 81.2 µM.

Q: What about the TGI [39] of the same compound?
A: Its TGI is over 100 µM.

Q: And the GI50 [40]?
A: The GI50 was 2.56 µM.

Q: And the TGI [40]?
A: The TGI was over 41.1 µM.

Q: And the GI50 [41]?
A: The GI50 was 1.54 µM.

Q: What about the TGI [41] of the same compound?
A: The TGI was 3.38 µM.

Q: And the GI50 [42]?
A: The GI50 was 2.41 µM.

Q: And the TGI [42]?
A: Its TGI is 14.6 µM.

Q: And the GI50 [43]?
A: The GI50 was 1.73 µM.

Q: And the TGI [43]?
A: The TGI was 3.77 µM.

Q: What about the GI50 [44] of the same compound?
A: The GI50 was 2.3 µM.

Q: And the TGI [44]?
A: The TGI was over 100 µM.

Q: And the GI50 [45]?
A: Its GI50 is 5.67 µM.

Q: And the TGI [45]?
A: Its TGI is over 46.7 µM.

Q: What about the GI50 [46] of the same compound?
A: The GI50 was over 100 µM.

Q: What about the TGI [46] of the same compound?
A: Its TGI is over 100 µM.

Q: What about the GI50 [47] of the same compound?
A: Its GI50 is 2.03 µM.

Q: And the TGI [47]?
A: The TGI was 4.5 µM.

Q: What about the GI50 [48] of the same compound?
A: Its GI50 is over 100 µM.

Q: And the TGI [48]?
A: Its TGI is over 100 µM.

Q: What about the GI50 [49] of the same compound?
A: The GI50 was 1.65 µM.

Q: What about the TGI [49] of the same compound?
A: Its TGI is 4.15 µM.

Q: What about the GI50 [50] of the same compound?
A: The GI50 was 2.03 µM.

Q: And the TGI [50]?
A: The TGI was over 100 µM.

Q: And the GI50 [51]?
A: Its GI50 is 1.96 µM.

Q: What about the TGI [51] of the same compound?
A: The TGI was 4.68 µM.

Q: What about the GI50 [52] of the same compound?
A: Its GI50 is 3.69 µM.

Q: What about the TGI [52] of the same compound?
A: Its TGI is over 44.3 µM.

Q: And the GI50 [53]?
A: Its GI50 is 2.95 µM.

Q: What about the TGI [53] of the same compound?
A: The TGI was over 44.7 µM.

Q: What about the GI50 [54] of the same compound?
A: Its GI50 is 5.8 µM.

Q: What about the TGI [54] of the same compound?
A: Its TGI is over 47.5 µM.

Q: And the GI50 [55]?
A: Its GI50 is 4.14 µM.

Q: And the TGI [55]?
A: The TGI was 86.9 µM.

Q: And the GI50 [56]?
A: The GI50 was over 100 µM.

Q: What about the TGI [56] of the same compound?
A: The TGI was over 100 µM.

Q: And the GI50 [57]?
A: Its GI50 is over 100 µM.

Q: What about the TGI [57] of the same compound?
A: The TGI was over 100 µM.

Q: What about the GI50 [58] of the same compound?
A: The GI50 was over 100 µM.

Q: And the TGI [58]?
A: The TGI was over 100 µM.
